Results as given in ChEMBL document CHEMBL3885861, “Open TG-GATES”.

Organism: Rattus norvegicus
Experiment: Open TG-GATES - Regimen: Single
Format: toxicity, organism-based, Sprague-Dawley
Design: regimen Single, gender Male, age 6 weeks
Details: in vivo, po, 0 mg/kg, route gavage, dose level Control; for Bas / Eos / Hb / Ht / Lym / MCH / MCHC / MCV / Mono / Neu / Plat / RBC / Ret / WBC: tissue Blood; for KIDNEY_L / KIDNEY_R / KIDNEY_TOTAL: tissue Kidney; for LIVER: tissue Liver; for A/G / ALP / ALT / AST / BUN / CRE / Ca / Cl / DBIL / GLC / IP / K / LDH / Na / PL / RALB / TBIL / TC / TG / TP / gamma-GTP: tissue Plasma

SMILES: Cc1ccc2cc3c(ccc4ccccc43)c3c2c1CC3 [3-METHYLCHOLANTHRENE]
- TERMINAL_BW (3 h): 209.2 g
- Bas (3 h): 0%
- Eos (3 h): 0.6%
- Hb (3 h): 12.8 g/dL
- Ht (3 h): 39.3%
- Lym (3 h): 79.2%
- MCH (3 h): 20.8 pg
- MCHC (3 h): 32.6%
- MCV (3 h): 63.7 fL
- Mono (3 h): 3.6%
- Neu (3 h): 16.2%
- Plat (3 h): 126.1 x10_4/uL
- RBC (3 h): 616.6 x10_4/ul
- Ret (3 h): 8.7%
- WBC (3 h): 119.3 x10_2/uL
- KIDNEY_L (3 h): 0.9 g
- KIDNEY_R (3 h): 0.9 g
- KIDNEY_TOTAL (3 h): 1.9 g
- LIVER (3 h): 9.3 g
- A/G (3 h): 1.1
- ALP (3 h): 1726.2 IU/L
- ALT (3 h): 46.2 IU/L
- AST (3 h): 77.6 IU/L
- BUN (3 h): 10.5 mg/dL
- CRE (3 h): 0.1 mg/dL
- Ca (3 h): 10.7 mg/dL
- Cl (3 h): 104.3 meq/L
- DBIL (3 h): 0.002 mg/dL
- GLC (3 h): 185.2 mg/dL
- IP (3 h): 7.7 mg/dL
- K (3 h): 3.9 meq/L
- LDH (3 h): 179.6 IU/L
- Na (3 h): 140.3 meq/L
- PL (3 h): 163.8 mg/dL
- RALB (3 h): 2.8 g/dL
- TBIL (3 h): 0.002 mg/dL
- TC (3 h): 77.2 mg/dL
- TG (3 h): 142.8 mg/dL
- TP (3 h): 5.6 g/dL
- gamma-GTP (3 h): 0.7 IU/L
- TERMINAL_BW (6 h): 206.1 g
- Bas (6 h): 0%
- Eos (6 h): 0.6%
- Hb (6 h): 12.8 g/dL
- Ht (6 h): 38.9%
- Lym (6 h): 69%
- MCH (6 h): 20.7 pg
- MCHC (6 h): 32.8%
- MCV (6 h): 63.2 fL
- Mono (6 h): 3.4%
- Neu (6 h): 26.2%
- Plat (6 h): 124.5 x10_4/uL
- RBC (6 h): 616.2 x10_4/ul
- Ret (6 h): 8.7%
- WBC (6 h): 125.8 x10_2/uL
- KIDNEY_L (6 h): 0.9 g
- KIDNEY_R (6 h): 0.9 g
- KIDNEY_TOTAL (6 h): 1.8 g
- LIVER (6 h): 8.4 g
- A/G (6 h): 1
- ALP (6 h): 1728.2 IU/L
- ALT (6 h): 38 IU/L
- AST (6 h): 69.6 IU/L
- BUN (6 h): 8.9 mg/dL
- CRE (6 h): 0.1 mg/dL
- Ca (6 h): 10.4 mg/dL
- Cl (6 h): 104.5 meq/L
- DBIL (6 h): 0.002 mg/dL
- GLC (6 h): 201.6 mg/dL
- IP (6 h): 9.9 mg/dL
- K (6 h): 4.3 meq/L
- LDH (6 h): 114.8 IU/L
- Na (6 h): 139.9 meq/L
- PL (6 h): 142.4 mg/dL
- RALB (6 h): 2.7 g/dL
- TBIL (6 h): 0.014 mg/dL
- TC (6 h): 80.2 mg/dL
- TG (6 h): 51 mg/dL
- TP (6 h): 5.5 g/dL
- gamma-GTP (6 h): 0.7 IU/L
- TERMINAL_BW (9 h): 204.4 g
- Bas (9 h): 0%
- Eos (9 h): 0.6%
- Hb (9 h): 12.5 g/dL
- Ht (9 h): 38.9%
- Lym (9 h): 75.2%
- MCH (9 h): 20.7 pg
- MCHC (9 h): 32.1%
- MCV (9 h): 64.5 fL
- Mono (9 h): 2.6%
- Neu (9 h): 21%
- Plat (9 h): 129.6 x10_4/uL
- RBC (9 h): 603.8 x10_4/ul
- Ret (9 h): 9%
- WBC (9 h): 80.7 x10_2/uL
- KIDNEY_L (9 h): 1 g
- KIDNEY_R (9 h): 1 g
- KIDNEY_TOTAL (9 h): 1.9 g
- LIVER (9 h): 8.4 g
- A/G (9 h): 1
- ALP (9 h): 1550.4 IU/L
- ALT (9 h): 33.8 IU/L
- AST (9 h): 63.4 IU/L
- BUN (9 h): 10.6 mg/dL
- CRE (9 h): 0.1 mg/dL
- Ca (9 h): 10.6 mg/dL
- Cl (9 h): 103.4 meq/L
- DBIL (9 h): 0.004 mg/dL
- GLC (9 h): 176.6 mg/dL
- IP (9 h): 10.9 mg/dL
- K (9 h): 4.4 meq/L
- LDH (9 h): 137.8 IU/L
- Na (9 h): 141.6 meq/L
- PL (9 h): 132.2 mg/dL
- RALB (9 h): 2.7 g/dL
- TBIL (9 h): 0.006 mg/dL
- TC (9 h): 71.4 mg/dL
- TG (9 h): 52.7 mg/dL
- TP (9 h): 5.5 g/dL
- gamma-GTP (9 h): 0.7 IU/L
- TERMINAL_BW (24 h): 220.6 g
- Bas (24 h): 0%
- Eos (24 h): 0.6%
- Hb (24 h): 12.6 g/dL
- Ht (24 h): 38.4%
- Lym (24 h): 79.4%
- MCH (24 h): 20.5 pg
- MCHC (24 h): 32.7%
- MCV (24 h): 62.7 fL
- Mono (24 h): 3.2%
- Neu (24 h): 16%
- Plat (24 h): 119.3 x10_4/uL
- RBC (24 h): 612.8 x10_4/ul
- Ret (24 h): 8%
- WBC (24 h): 100 x10_2/uL
- KIDNEY_L (24 h): 0.9 g
- KIDNEY_R (24 h): 1 g
- KIDNEY_TOTAL (24 h): 1.9 g
- LIVER (24 h): 9.8 g
- A/G (24 h): 1
- ALP (24 h): 1697 IU/L
- ALT (24 h): 38 IU/L
- AST (24 h): 72 IU/L
- BUN (24 h): 13.8 mg/dL
- CRE (24 h): 0.1 mg/dL
- Ca (24 h): 10.9 mg/dL
- Cl (24 h): 103 meq/L
- DBIL (24 h): 0 mg/dL
- GLC (24 h): 186.2 mg/dL
- IP (24 h): 7.1 mg/dL
- K (24 h): 4.4 meq/L
- LDH (24 h): 181 IU/L
- Na (24 h): 142 meq/L
- PL (24 h): 160.8 mg/dL
- RALB (24 h): 2.8 g/dL
- TBIL (24 h): 0.006 mg/dL
- TC (24 h): 82 mg/dL
- TG (24 h): 134.9 mg/dL
- TP (24 h): 5.5 g/dL
- gamma-GTP (24 h): 0.8 IU/L
